Experimental data as given in BindingDB's records for doi:10.7270/Q2K64GGJ (University of Pittsburgh, 2006).

The molecules below were run against T1, Dual specificity protein phosphatase 1 (Homo sapiens, UniProt P28562) (assay: DUSP1 dephosphorylation activity inhibition – biochemical, in vitro, dose response, specificity testing, selectivity assay, confirmation (AID 442)).
T1 sequence (P28562 whole entry): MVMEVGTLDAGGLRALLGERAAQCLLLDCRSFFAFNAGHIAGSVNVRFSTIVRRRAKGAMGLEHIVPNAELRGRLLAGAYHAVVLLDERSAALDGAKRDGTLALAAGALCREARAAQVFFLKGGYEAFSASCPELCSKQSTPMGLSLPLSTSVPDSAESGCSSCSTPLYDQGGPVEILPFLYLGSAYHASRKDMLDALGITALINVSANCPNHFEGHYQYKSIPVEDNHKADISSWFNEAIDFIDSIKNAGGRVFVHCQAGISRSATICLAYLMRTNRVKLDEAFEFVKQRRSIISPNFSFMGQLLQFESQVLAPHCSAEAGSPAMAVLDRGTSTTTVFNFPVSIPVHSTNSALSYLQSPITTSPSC

Structure (SMILES) | IC50 [µM]
CCn1nc(-c2ccccc2)nc2c(=O)n(C)c(=O)nc1-2 [1-Ethyl-6-methyl-3-phenyl-1H-pyrimido[5,4-e][1,2,4]triazine-5,7-dione] | 0.19
CC(C)Cn1c(N)c(C(=O)COC(=O)c2cc(-c3ccco3)nc3ccccc23)c(=O)n(C)c1=O [2-(2-furanyl)-4-quinolinecarboxylic acid [2-[4-amino-1-methyl-3-(2-methylpropyl)-2,6-dioxo-5-pyrimidinyl]-2-oxoethyl] ester] | 16.8
COc1ccc(Cn2c(C)nc3c(c2=O)c2nc4ccccc4nc2n3Cc2ccco2)cc1 [MLS000079944] | 18.1

Second part, the molecule after the results:

IC50 [µM] | Structure (SMILES)
40.3 | Cc1ccc2c(c1C)NC(C(=O)O)C1CC=CC21 (stereo not given)
23.3 | CCCCC[C@H](O)C=C[C@H]1C=CC(=O)[C@@H]1C/C=C\CCCC(=O)O [(Z)-7-[(1R,5S)-2-oxidanylidene-5-[(E,3S)-3-oxidanyloct-1-enyl]cyclopent-3-en-1-yl]hept-5-enoic acid]
